According to patent publication US4337249A, “Modulators of the complement system” (American Cyanamid Company, priority 1981, dated 1982):
Where a name gives a salt, the structure may show the parent alone.

Tests used:
activated human C1 = target: T1, activated human C1 (Homo sapiens, UniProt P09871); experiment: Test Code 026 (C1 inhibitor); assay type: biochemical; conditions: serial twofold dilution assay; higher well number indicates higher activity; protection of human C2 from C1 in presence of C4
T1 sequence (P09871 438-688 limits assumed): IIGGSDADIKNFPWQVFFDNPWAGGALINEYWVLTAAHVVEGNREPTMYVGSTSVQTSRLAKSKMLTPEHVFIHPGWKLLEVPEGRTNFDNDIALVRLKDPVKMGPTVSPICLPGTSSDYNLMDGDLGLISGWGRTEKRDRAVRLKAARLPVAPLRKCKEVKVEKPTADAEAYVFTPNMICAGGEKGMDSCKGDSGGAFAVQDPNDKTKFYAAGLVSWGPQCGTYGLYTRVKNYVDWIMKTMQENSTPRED
T1 sequence (P09871 16-437 limits assumed): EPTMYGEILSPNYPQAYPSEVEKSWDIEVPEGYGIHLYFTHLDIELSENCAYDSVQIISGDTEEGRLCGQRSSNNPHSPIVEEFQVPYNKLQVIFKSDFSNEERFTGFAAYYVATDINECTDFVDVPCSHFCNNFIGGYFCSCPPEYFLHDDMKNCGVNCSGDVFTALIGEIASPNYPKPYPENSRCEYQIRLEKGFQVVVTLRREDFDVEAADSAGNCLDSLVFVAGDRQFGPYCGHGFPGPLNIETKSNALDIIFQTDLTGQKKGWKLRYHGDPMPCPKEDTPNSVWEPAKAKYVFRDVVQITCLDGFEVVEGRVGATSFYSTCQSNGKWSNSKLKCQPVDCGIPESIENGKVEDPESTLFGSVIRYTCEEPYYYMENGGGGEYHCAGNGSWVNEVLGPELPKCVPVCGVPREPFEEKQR
Experimental: (§1) An active inhibitor protects C2 from C1 and C4; (ii) Cap 50 Test Here, appropriate amounts of the test compound are added to a pool of guinea pig serum in vitro, after which the undiluted serum capillary tube assay of U.S. Pat. No. 3,876,376 is run. The concentration of compound inhibiting 50% is reported; and (iii) Guinea Pig Intraperitoneal Test (GPIP)--Guinea pigs weighing about 300 g are dosed intraperitoneally (i.p.) with 200 mg kg of the test compound dissolved in saline and adjusted to pH 7-8. Approximately 0.4 ml blood samples, taken by orbital sinus puncture 2 hours and 6 hours after injections, are collected directly into centrifuge tubes; 5 ml blood samples, taken by decapitation 24 hours after injection, are collected directly into beakers. The samples are allowed to clot, centrifuged, and the resultant sera are assayed for complement activity using the capillary complement assay. Percent inhibition are calculated by comparison with simultaneous controls. The results of the GPIP appear in Table I together with results of Test Code 026 and Cap 50.

[1] = test system: complement in pool of guinea pig serum; experiment: Cap 50 Test (undiluted serum capillary tube assay); assay type: biochemical
Experimental: as §1

[2] = test system: serum complement activity; experiment: Guinea Pig Intraperitoneal Test (GPIP); assay type: in vivo; conditions: 200 mg kg i.p., versus simultaneous controls
Experimental: as §1

## O=C(C=Cc1ccc(OS(=O)(=O)O)c(OS(=O)(=O)O)c1)N[C@@H]1O[C@H](COS(=O)(=O)O)[C@@H](O[C@H]2O[C@H](COS(=O)(=O)O)[C@@H](OS(=O)(=O)O)[C@H](OS(=O)(=O)O)[C@H]2OS(=O)(=O)O)[C@H](OS(=O)(=O)O)[C@H]1OS(=O)(=O)O [N-(4-O-α-D-Glucopyranosyl-β-D-glucopyranosyl)-3,4-dihydroxycinnamamide, nonakis (H-sulfate), (nonaester), nonasodium salt]
Activated human C1
  In vitro Activity C1 026 Wells: 8 (9) Wells
[1]
  In vitro Activity Cap 50 (concentration of compound inhibiting 50%): 304
[2]; serum 2 hours after injection
  In vivo Activity (Guinea pig % Inhibition) Intraperitoneal, 2 hours: 63 % Inhibition
[2]; serum 6 hours after injection
  In vivo Activity (Guinea pig % Inhibition) Intraperitoneal, 6 hours: 17 % Inhibition
[2]; serum 24 hours after injection
  In vivo Activity (Guinea pig % Inhibition) Intraperitoneal, 24 hours: 2 % Inhibition
